Measured values as given in patent US8344159B2, “Carvedilol phosphate sesquihydrate” (priority 2006, dated 2013).
Where two headings read alike, the source gives them in different places.

What was measured:
[1] = solubility compared to carvedilol base
[2] = stability compared to carvedilol base; assay type: physicochemical; details: color of final product, phosphate sesquihydrate
[3] = compared to the free base of carvedilol; disclosed in WO 2004/002419; cited from earlier work

SMILES	solubility [1]	stability [2]	solubility [3]
COc1ccccc1OCCNCC(O)COc1cccc2[nH]c3ccccc3c12.O=P(O)(O)O (stereo not drawn) [carvedilol dihydrogen phosphate sesquihydrate]	Better solubility as compared to carvedilol base	More stable as compared to carvedilol base	–
COc1ccccc1OCCNCC(O)COc1cccc2[nH]c3ccccc3c12.O=P(O)(O)O (stereo not drawn) [carvedilol dihydrogen phosphate, Carvedilol dihydrogen phosphate]	–	–	higher solubility when compared to the free base of carvedilol
